{"source": "patent US5262417A", "about": "“Antibacterial quinolone compounds” (The Upjohn Company, priority 1991, dated 1993)", "experiment_in_all_cases": "Minimum inhibitory concentration (MIC) by agar dilution", "type_in_all_cases": "cell-based", "key": {"[1]": {"test_system": "Enterobacter cloacae", "protocol": "(§1) Briefly, MIC values are determined in unsupplemented Mueller Hinton Agar (MHA). The compounds tested are diluted serially into molten MHA at 47° C. The agar is poured into petri dishes and allowed to harden. The various bacteria used for testing are grown overnight on MHA at 35° C. and transferred to Trypticase soy broth (TSB) until a turbidity of 0.5 McFarland standard is obtained. The bacteria are diluted one to 20 in TSB and inoculated on the plates (1 μl using a Steers replicator).\nas §1, with “Compounds of this invention can also be tested for in vitro antimicrobial activity using standard testing procedures such as the determination of minimum inhibitory concentration (MIC) by agar dilution as described in \"Methods for Dilution Antimicrobial Susceptibility Tests for Bacteria That Grow Aerobically\" (MFT) published Jan. […] Briefly,” for “Briefly,”, “(1μl” for “(1 μl”"}, "[2]": {"test_system": "Staphylococcus epidermidis", "conditions": "20 h", "protocol": "as §1, with “The antibacterial activity of the compounds of Formula IC was determined by using standard testing procedures such as the determination of minimum inhibitory concentration (MIC) by agar dilution as described in \"Methods for Dilution Antimicrobial Susceptibility Tests for Bacteria That Grow Aerobically\" (MFT) published January 1983 by the National Committee for Clinical Laboratory Standards, 771 East Lancaster Avenue, Villanova, Pa. 19084, USA. Briefly,” for “Briefly,”\n(§2) Compounds of this invention can also be tested for in vitro antimicrobial activity using standard testing procedures such as the determination of minimum inhibitory concentration (MIC) by agar dilution as described in \"Methods for Dilution Antimicrobial Susceptibility Tests for Bacteria That Grow Aerobically\" (MFT) published Jan. 1983 by the National Committee for Clinical Laboratory Standards, 771 East Lancaster Avenue, Villanova, Penna. 19084, USA. Briefly, MIC values are determined in unsupplemented Mueller Hinton Agar (MHA). The compounds tested are diluted serially into molten MHA at 47° C. The agar is poured into petri dishes and allowed to harden. The various bacteria used for testing are grown overnight on MHA at 35° C. and transferred to Trypticase soy broth (TSB) until a turbidity of 0.5 McFarland standard is obtained. The bacteria are diluted one to 20 in TSB and inoculated on the plates (1μl using a Steers replicator). […] The MIC test results of selected of Formula B compounds of this invention are found in Tables B2-B9."}, "[3]": {"test_system": "Streptococcus pneumoniae", "conditions": "Streptococcus pneumoniae", "protocol": "(§3) The antibacterial activity of the compounds of Formula IC was determined by using standard testing procedures such as the determination of minimum inhibitory concentration (MIC) by agar dilution as described in \"Methods for Dilution Antimicrobial Susceptibility Tests for Bacteria That Grow Aerobically\" (MFT) published January 1983 by the National Committee for Clinical Laboratory Standards, 771 East Lancaster Avenue, Villanova, Pa. 19084, USA. Briefly, MIC values are determined in unsupplemented Mueller Hinton Agar (MHA). The compounds tested are diluted serially into molten MHA at 47° C. The agar is poured into petri dishes and allowed to harden. The various bacteria used for testing are grown overnight on MHA at 35° C. and transferred to Trypticase soy broth (TSB) until a turbidity of 0.5 McFarland standard is obtained. The bacteria are diluted one to 20 in TSB and inoculated on the plates (1 μl using a Steers replicator).\nas §2"}, "[4]": {"test_system": "Streptococcus faecalis", "conditions": "Enterococcus faecalis", "protocol": "as §3, §2"}, "[5]": {"test_system": "Citerobacter freundii", "protocol": "as §3, §2"}, "[6]": {"test_system": "Serratia marcescens", "conditions": "20 h, read-out: MINIMUM INHIBITORY CONCENTRATION", "protocol": "as §3, §2"}, "[7]": {"test_system": "Acinetobacter calcoaceticus", "conditions": "Acinetobacter calcoaceticus", "protocol": "as §3, §2"}, "[8]": {"test_system": "Proteus penneri", "conditions": "Proteus penneri", "protocol": "as §3, §2"}, "[9]": {"test_system": "Pseudomonas aeruginosa", "conditions": "Pseudomonas aeruginosa", "protocol": "as §3, §2"}, "[10]": {"test_system": "Streptococcus pyogenes", "conditions": "Streptococcus pyogenes", "protocol": "as §3, §2"}, "[11]": {"test_system": "Staphylococcus aureus", "conditions": "Staphylococcus aureus", "protocol": "as §3, §2"}, "[12]": {"test_system": "Escherichia coli", "conditions": "Escherichia coli", "protocol": "as §3, §2"}, "[13]": {"test_system": "Klebsiella pneumoniae", "protocol": "as §3, §2"}, "[14]": {"conditions": "20 h, read-out: MINIMUM INHIBITORY CONCENTRATION"}}, "note": "Like-named read-outs stand apart in the source and are kept apart here.", "data": [{"smiles": "C#CC(C)(C)n1cc(C(=O)O)c(=O)c2cc(F)c(N3CCNCC3)c(F)c21.CS(=O)(=O)O", "note": "[A, (+,-)-6,8-difluoro-1,4-dihydro-1-(1,1-dimethyl-2-propynyl)-4-oxo-7-(1-piperazinyl)-3-quinolinecarboxylic acid methanesulfonate]", "values": [{"measurement": "MIC", "setting": "[1]; UC9382, 20 h, read-out: Minimum Inhibitory Concentration", "value": 0.25, "unit": "µg/mL"}, {"measurement": "MIC", "setting": "[2]; read-out: Minimum Inhibitory Concentration", "value": 1, "unit": "µg/mL"}, {"measurement": "MIC", "setting": "[3]; UC41, 20 h, read-out: Minimum Inhibitory Concentration, S. pneumoniae UC 41, Table CI", "value": 8, "unit": "µg/mL"}, {"measurement": "MIC", "setting": "[4]; UC9217, 20 h, read-out: Minimum Inhibitory Concentration", "value": 8, "unit": "µg/mL"}, {"measurement": "MIC", "setting": "[5]; Citrobacter freundii, UC3507, 20 h, read-out: Minimum Inhibitory Concentration", "value": 0.25, "unit": "µg/mL"}, {"measurement": "MIC", "setting": "[6]", "value": 2, "unit": "µg/mL"}, {"measurement": "MIC", "setting": "[7]; UC12170, 20 h, read-out: Minimum Inhibitory Concentration, A. calcoaceticus UC 12170, Table CI", "value": 1, "unit": "µg/mL"}, {"measurement": "MIC", "setting": "[8]; UC9679, 20 h, read-out: Minimum Inhibitory Concentration, P. penneri UC 9679, Table CI", "value": 1, "unit": "µg/mL"}, {"measurement": "MIC", "setting": "[9]; UC6676, 20 h, read-out: Minimum Inhibitory Concentration, Ps. aeruginosa UC 6676, Table CI", "value": 4, "unit": "µg/mL"}, {"measurement": "MIC", "setting": "[9]; UC9191, 20 h, read-out: Minimum Inhibitory Concentration, Ps. aeruginosa UC 9191, Table CI", "value": 2, "unit": "µg/mL"}, {"measurement": "MIC", "setting": "[9]; UC12120, 20 h, read-out: Minimum Inhibitory Concentration, Ps. aeruginosa UC 12120, Table CI", "value": 2, "unit": "µg/mL"}, {"measurement": "MIC", "setting": "[10]; UC152, 20 h, read-out: Minimum Inhibitory Concentration, S. pyogenes UC 152, Table CI", "value": 8, "unit": "µg/mL"}, {"measurement": "MIC", "setting": "[11]; UC6685, 20 h, read-out: Minimum Inhibitory Concentration, S. aureus UC 6685, Table CI", "value": 2, "unit": "µg/mL"}, {"measurement": "MIC", "setting": "[11]; UC9213, 20 h, read-out: Minimum Inhibitory Concentration, S. aureus UC 9213, Table CI", "value": 4, "unit": "µg/mL"}, {"measurement": "MIC", "setting": "[11]; UC9218, 20 h, read-out: Minimum Inhibitory Concentration, S. aureus UC 9218, Table CI", "value": 2, "unit": "µg/mL"}, {"measurement": "MIC", "setting": "[11]; UC9271, 20 h, read-out: Minimum Inhibitory Concentration, S. aureus UC 9271, Table CI", "value": 2, "unit": "µg/mL"}, {"measurement": "MIC", "setting": "[12]; UC6674, 20 h, read-out: Minimum Inhibitory Concentration, E. coli UC 6674, Table CI", "value": 0.25, "unit": "µg/mL"}, {"measurement": "MIC", "setting": "[12]; UC9451, 20 h, read-out: Minimum Inhibitory Concentration, E. coli UC 9451, Table CI", "value": 0.25, "unit": "µg/mL"}, {"measurement": "MIC", "setting": "[12]; UC9855, 20 h, read-out: Minimum Inhibitory Concentration, E. coli UC 9855, Table CI", "value": 0.25, "unit": "µg/mL"}, {"measurement": "MIC", "setting": "[12]; UC9952, 20 h, read-out: Minimum Inhibitory Concentration, E. coli UC 9952, Table CI", "value": 0.25, "unit": "µg/mL"}, {"measurement": "MIC", "setting": "[13]; UC12081, 20 h, read-out: Minimum Inhibitory Concentration", "value": 0.5, "unit": "µg/mL"}]}, {"smiles": "O=C(O)c1cn(C23CC(C2)C3)c2c(F)c(N3CCNCC3)c(F)cc2c1=O", "note": "[No. 1, 1-(bicyclo[1.1.1]pent-1-yl)-6,8-difluoro-1,4-dihydro-4-oxo-7-(1-piperazinyl)-3-quinolinecarboxylic acid]", "values": [{"measurement": "MIC", "setting": "[1]; [14]", "value": 0.06, "unit": "µg/mL"}, {"measurement": "MIC", "setting": "[2]; read-out: MINIMUM INHIBITORY CONCENTRATION", "value": 0.25, "unit": "µg/mL"}, {"measurement": "MIC", "setting": "[3]; 20 h, read-out: MINIMUM INHIBITORY CONCENTRATION, Cult No. 41, MHA", "value": 2, "unit": "µg/mL"}, {"measurement": "MIC", "setting": "[4]; [14]", "value": 2, "unit": "µg/mL"}, {"measurement": "MIC", "setting": "[5]; [14]", "value": 0.06, "unit": "µg/mL"}, {"measurement": "MIC", "setting": "[6]", "value": 0.25, "unit": "µg/mL"}, {"measurement": "MIC", "setting": "[7]; 20 h, read-out: MINIMUM INHIBITORY CONCENTRATION, Cult No. 12170, MHA", "value": 0.25, "unit": "µg/mL"}, {"measurement": "MIC", "setting": "[8]; 20 h, read-out: MINIMUM INHIBITORY CONCENTRATION, Cult No. 9679, MHA", "value": 0.5, "unit": "µg/mL"}, {"measurement": "MIC", "setting": "[9]; 20 h, read-out: MINIMUM INHIBITORY CONCENTRATION, Cult No. 6676, MHA", "value": 2, "unit": "µg/mL"}, {"measurement": "MIC", "setting": "[9]; 20 h, read-out: MINIMUM INHIBITORY CONCENTRATION, Cult No. 9191, MHA", "value": 1, "unit": "µg/mL"}, {"measurement": "MIC", "setting": "[9]; 20 h, read-out: MINIMUM INHIBITORY CONCENTRATION, Cult No. 12120, MHA", "value": 1, "unit": "µg/mL"}, {"measurement": "MIC", "setting": "[10]; 20 h, read-out: MINIMUM INHIBITORY CONCENTRATION, Cult No. 152, MHA", "value": 2, "unit": "µg/mL"}, {"measurement": "MIC", "setting": "[11]; 20 h, read-out: MINIMUM INHIBITORY CONCENTRATION, Cult No. 3665, MHA", "value": 0.5, "unit": "µg/mL"}, {"measurement": "MIC", "setting": "[11]; 20 h, read-out: MINIMUM INHIBITORY CONCENTRATION, Cult No. 6685, MHA", "value": 0.5, "unit": "µg/mL"}, {"measurement": "MIC", "setting": "[11]; 20 h, read-out: MINIMUM INHIBITORY CONCENTRATION, Cult No. 9213, MHA", "value": 1, "unit": "µg/mL"}, {"measurement": "MIC", "setting": "[11]; 20 h, read-out: MINIMUM INHIBITORY CONCENTRATION, Cult No. 9218, MHA", "value": 0.5, "unit": "µg/mL"}, {"measurement": "MIC", "setting": "[11]; 20 h, read-out: MINIMUM INHIBITORY CONCENTRATION, Cult No. 9271, MHA", "value": 0.5, "unit": "µg/mL"}, {"measurement": "MIC", "setting": "[12]; 20 h, read-out: MINIMUM INHIBITORY CONCENTRATION, Cult No. 6674, MHA", "value": 0.06, "unit": "µg/mL"}, {"measurement": "MIC", "setting": "[12]; 20 h, read-out: MINIMUM INHIBITORY CONCENTRATION, Cult No. 9451, MHA", "value": 0.06, "unit": "µg/mL"}, {"measurement": "MIC", "setting": "[12]; 20 h, read-out: MINIMUM INHIBITORY CONCENTRATION, Cult No. 9855, MHA", "value": 0.06, "unit": "µg/mL"}, {"measurement": "MIC", "setting": "[12]; 20 h, read-out: MINIMUM INHIBITORY CONCENTRATION, Cult No. 9952, MHA", "value": 0.06, "unit": "µg/mL"}, {"measurement": "MIC", "setting": "[13]; [14]", "value": 0.125, "unit": "µg/mL"}]}]}
